This is an account of results in patent publication US9562053B2, “Benzo-fused heterocyclic derivatives useful as agonists of GPR120” (Janssen Pharmaceutica NV, priority 2013, dated 2017).

As usually defined, the EC50 is the concentration that produces a half-maximal response.

In the assay the target is T1, Human GPR120 short form (Homo sapiens, UniProt Q5NUL3).
T1 construct: expressed in transfected cells
T1 sequence (Q5NUL3 1-361): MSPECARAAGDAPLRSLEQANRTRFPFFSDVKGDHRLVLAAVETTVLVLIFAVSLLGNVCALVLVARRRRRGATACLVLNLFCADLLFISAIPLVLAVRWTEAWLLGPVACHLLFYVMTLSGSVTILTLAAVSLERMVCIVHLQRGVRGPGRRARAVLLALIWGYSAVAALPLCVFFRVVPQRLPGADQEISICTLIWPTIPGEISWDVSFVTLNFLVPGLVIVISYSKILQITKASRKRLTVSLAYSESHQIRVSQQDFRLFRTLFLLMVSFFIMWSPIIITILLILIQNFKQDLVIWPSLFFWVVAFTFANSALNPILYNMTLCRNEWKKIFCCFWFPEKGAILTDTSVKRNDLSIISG
Description: Human GPR120 in Calcium Flux Assay, Procedure Calcium A (2500 cells/well). It counts as cell-based. A digest of the protocol: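 HEK293 cells stably expressing GPR120 short isoform, 2500 cells/well, serum-starved 1 h, loaded with Fluo-4 NW plus probenecid (30 min 37 °C, 15 min RT). Compounds prepared at 0.012–100 μM, 0.2% DMSO final. FLIPR calcium signal over 300 s as Fmax−Fmin; EC50 from variable-slope fit (Hill <2).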
(Calcium assays in cells follow changes in intracellular calcium, usually with a dye or a luminescent sensor.)
`Cc1c(CCC(=O)O)ccc(OCc2cc(F)cc3cc(C#N)oc23)c1C` [Compound 49, 3-{4-[(2-Cyano-5-fluoro-1-benzofuran-7-yl)methoxy]-2,3-dimethylphenyl}propanoic acid]: the EC50 was found to be 237 nM.

For the compound `CCCc1cc2cc(I)cc(COc3ccc(CCC(=O)O)c(C)c3C)c2o1` [Compound 47, 3-{4-[(5-Iodo-2-propyl-1-benzofuran-7-yl)methoxy]-2,3-dimethylphenyl}propanoic acid], the EC50 is 22 nM.

For `Cc1c(CCC(=O)O)ccc(OCc2cc(Cl)cc3cc(C=CF)oc23)c1C` (mixture of isomers) [Compound 88, 3-(4-((5-Chloro-2-(2-fluorovinyl)benzofuran-7-yl)methoxy)-2,3-dimethylphenyl)propanoic acid], the concentration for a half-maximal effect (EC50) is 147 nM.

Consider `CCCc1cc2cc(Cl)cc(COc3ccc(CCC(=O)O)c(C)c3C)c2o1` [Compound 31, 3-{4-[(5-Chloro-2-propyl-1-benzofuran-7-yl)methoxy]-2,3-dimethylphenyl}propanoic acid], for which the EC50 was 44 nM.

Regarding `CCOc1cc(COc2ccc(CCC(=O)O)c(C)c2C)c2oc(CC)cc2c1` [Compound 29, 3-{4-[(5-Ethoxy-2-ethyl-1-benzofuran-7-yl)methoxy]-2,3-dimethylphenyl}propanoic acid], the EC50 was determined as 107 nM.

Take `CCc1cc2cc(Cl)cc(COc3ccc(CCC(=O)O)c(C)c3C)c2o1` [Compound 11, 3-{4-[(5-Chloro-2-ethyl-1-benzofuran-7-yl)methoxy]-2,3-dimethylphenyl}propanoic acid]: the EC50 came out at 23 nM.

Take `CCc1cc2cc(OC(F)(F)F)cc(COc3ccc(CCC(=O)O)c(C)c3C)c2o1` [Compound 12, 3-(4-{[2-Ethyl-5-(trifluoromethoxy)-1-benzofuran-7-yl]methoxy}-2,3-dimethylphenyl)propanoic acid]: the EC50 came to 39 nM.

Turning to `Cc1cc2c(F)c(OC(F)(F)F)c(F)c(COc3ccc(CCC(=O)O)c(C)c3C)c2o1` [Compound 71, 3-(4-{[4,6-Difluoro-2-methyl-5-(trifluoromethoxy)-1-benzofuran-7-yl]methoxy}-2,3-dimethylphenyl)propanoic acid], the EC50 was 64 nM.

For `Cc1oc2cc(Cl)cc(COc3ccc(CCC(=O)O)c(C)c3C)c2c1C` [Compound 80, 3-{4-[(6-Chloro-2,3-dimethyl-1-benzofuran-4-yl)methoxy]-2,3-dimethylphenyl}propanoic acid], the EC50 was 151 nM.

In the case of `Cc1cc2cc(OC(F)F)cc(COc3ccc(CCC(=O)O)c(C)c3C)c2o1` [Compound 76, 3-(4-{[5-(Difluoromethoxy)-2-methyl-1-benzofuran-7-yl]methoxy}-2,3-dimethylphenyl)propanoic acid], the EC50 stood at 20 nM.

Take `Cc1cc2c(F)c(OC(F)(F)F)c(F)c(COc3ccc(CCC(=O)O)c(F)c3F)c2o1` [Compound 75, 3-(4-{[4,6-Difluoro-2-methyl-5-(trifluoromethoxy)-1-benzofuran-7-yl]methoxy}-2,3-difluorophenyl)propanoic acid]: the EC50 turned out to be 182 nM.

With `Cc1cc2cc(Cl)cc(COc3ccc(CCC(=O)O)c(C)c3C)c2o1` [Compound 78, 3-{4-[(5-Chloro-2-methyl-1-benzofuran-7-yl)methoxy]-2,3-dimethylphenyl}propanoic acid], the EC50 stood at 20 nM.

In the case of `Cc1oc2c(COc3ccc(CCC(=O)O)c(C)c3C)cc(F)cc2c1F` [Compound 5, 3-{4-[(3,5-Difluoro-2-methyl-1-benzofuran-7-yl)methoxy]-2,3-dimethylphenyl}propanoic acid], the EC50 amounted to 1240 nM.

With `Cc1cc2cc3c(c(COc4ccc(CCC(=O)O)c(C)c4C)c2o1)OCO3` [Compound 82, 3-{2,3-Dimethyl-4-[(6-methylfuro[2,3-f][1,3]benzodioxol-4-yl)methoxy]phenyl}propanoic acid], the EC50 worked out at 153 nM.

For `CCCc1cc2cc(OC(F)F)cc(COc3ccc(CCC(=O)O)c(C)c3C)c2o1` [Compound 77, 3-(4-{[5-(Difluoromethoxy)-2-propyl-1-benzofuran-7-yl]methoxy}-2,3-dimethylphenyl)propanoic acid], the EC50 is 28 nM.

In the case of `Cc1c(CCC(=O)O)ccc(OCc2cc(Cl)cc3cnn(C)c23)c1C` [Compound 7, 3-{4-[(5-Chloro-1-methyl-1H-indazol-7-yl)methoxy]-2,3-dimethylphenyl}propanoic acid], the EC50 stood at 124 nM.

With `Cc1c(CCC(=O)O)ccc(OCc2cc(OC(F)(F)F)cc3cc(C=CF)oc23)c1C` (mixture of isomers) [Compound 97, 3-(4-{[2-(2-Fluoroethenyl)-5-(trifluoromethoxy)-1-benzofuran-7-yl]methoxy}-2,3-dimethylphenyl)propanoic acid], the EC50 is 20 nM.

`Cc1cc2cc(F)cc(COc3ccc(CCC(=O)O)c(C)c3C)c2o1` [Compound 2, 3-{4-[(5-Fluoro-2-methyl-1-benzofuran-7-yl)methoxy]-2,3-dimethylphenyl}propanoic acid]: the 50% effective concentration (EC50) amounted to 51 nM.

In the case of `Cc1cc2cc(OC(F)(F)F)cc(COc3ccc(CCC(=O)O)c4c3CCC4)c2o1` [Compound 55, 3-(7-{[2-Methyl-5-(trifluoromethoxy)-1-benzofuran-7-yl]methoxy}-2,3-dihydro-1H-inden-4-yl)propanoic acid], the EC50 came out at 28 nM.

Consider `Cc1c(CCC(=O)O)ccc(OCc2cc(F)cc3cc(C(F)(F)F)oc23)c1C` [Compound 4, 3-(4-{[5-Fluoro-2-(trifluoromethyl)-1-benzofuran-7-yl]methoxy}-2,3-dimethylphenyl)propanoic acid], for which the EC50 came to 279 nM.

In the case of `Cc1cc2cc(Cl)c(C)c(COc3ccc(CCC(=O)O)c(C)c3C)c2o1` [Compound 85, 3-{4-[(5-Chloro-2,6-dimethyl-1-benzofuran-7-yl)methoxy]-2,3-dimethylphenyl}propanoic acid], the concentration giving a half-maximal response (EC50) is 15 nM.

As for `CCc1cc2cc(F)cc(COc3ccc(CCC(=O)O)c(C)c3C)c2o1` [Compound 3, 3-{4-[(2-Ethyl-5-fluoro-1-benzofuran-7-yl)methoxy]-2,3-dimethylphenyl}propanoic acid], the EC50 is 58 nM.

For `CCc1cc2cc(Cl)c(OC)c(COc3ccc(CCC(=O)O)c(C)c3C)c2o1` [Compound 44, 3-{4-[(5-Chloro-2-ethyl-6-methoxy-1-benzofuran-7-yl)methoxy]-2,3-dimethylphenyl}propanoic acid], the EC50 was 27 nM.

With `Cc1c(CCC(=O)O)ccc(OCc2cc(F)cc3cc(C4CCCC4)oc23)c1C` [Compound 18, 3-{4-[(2-Cyclopentyl-5-fluoro-1-benzofuran-7-yl)methoxy]-2,3-dimethylphenyl}propanoic acid], the EC50 turned out to be 653 nM.

For the compound `CCOc1ccc2cc(CC)oc2c1COc1ccc(CCC(=O)O)c(C)c1C` [Compound 66, 3-{4-[(6-Ethoxy-2-ethyl-1-benzofuran-7-yl)methoxy]-2,3-dimethylphenyl}propanoic acid], the EC50 was 77 nM.

In the case of `Cc1nc2cc(Cl)cc(COc3ccc(CCC(=O)O)c(C)c3C)c2o1` [Compound 84, 3-{4-[(5-Chloro-2-methyl-1,3-benzoxazol-7-yl)methoxy]-2,3-dimethylphenyl}propanoic acid], the EC50 stood at 131 nM.

`CCOc1c(Cl)cc2cc(CC)oc2c1COc1ccc(CCC(=O)O)c(C)c1C` [Compound 62, 3-{4-[(5-Chloro-6-ethoxy-2-ethyl-1-benzofuran-7-yl)methoxy]-2,3-dimethylphenyl}propanoic acid]: the EC50 is 67 nM.

With `Cc1cc2cc(Cl)c(C)c(COc3c(F)cc(CCC(=O)O)cc3F)c2o1` [Compound 86, 3-{4-[(5-Chloro-2,6-dimethyl-1-benzofuran-7-yl)methoxy]-3,5-difluorophenyl}propanoic acid], the EC50 was 207 nM.

Turning to `CCCc1cc2cc(Cl)cc(COc3ccc(CCC(=O)O)c(F)c3F)c2o1` [Compound 59, 3-{4-[(5-Chloro-2-propyl-1-benzofuran-7-yl)methoxy]-2,3-difluorophenyl}propanoic acid], the EC50 was 93 nM.
